Assay results taken from PubChem BioAssay AID2060337 (Molecular Pharmacology Branch, DTP, NCI, 2025).

Test system: 832693-133-R-J1-PDC multi-cell spheroids, viability
Test: Anticancer human tumor 832693-133-R-J1-PDC patient-derived head and neck squamous carcinoma cell line growth inhibition [IpAb]
Details: for IC50: curve of first compound; for viability, T/C: stronger effect = lower value
Summary of the method: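 Spheroids of 60% malignant cells, 25% HUVEC and 15% MSC were exposed to targeted agents combined with ipatasertib or abemaciclib. Doses started at or near clinical Cmax (10 microM when unknown) and fell in half-log steps.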

[1] = second compound 0.01 µM, first compound 0.0316 µM
[2] = second compound 0.01 µM, first compound 0.1 µM
[3] = second compound 0.01 µM, first compound 0.316 µM
[4] = second compound 0.01 µM, first compound 1 µM
[5] = second compound 0.0316 µM, first compound 0.0316 µM
[6] = second compound 0.0316 µM, first compound 0.1 µM
[7] = second compound 0.0316 µM, first compound 0.316 µM
[8] = second compound 0.0316 µM, first compound 1 µM
[9] = second compound 0.1 µM, first compound 0.0316 µM
[10] = second compound 0.1 µM, first compound 0.1 µM
[11] = second compound 0.1 µM, first compound 0.316 µM
[12] = second compound 0.1 µM, first compound 1 µM
[13] = second compound 0.316 µM, first compound 0.0316 µM
[14] = second compound 0.316 µM, first compound 0.1 µM
[15] = second compound 0.316 µM, first compound 0.316 µM
[16] = second compound 0.316 µM, first compound 1 µM
[17] = second compound 1 µM, first compound 0.0316 µM
[18] = second compound 1 µM, first compound 0.1 µM
[19] = second compound 1 µM, first compound 0.316 µM
[20] = second compound 1 µM, first compound 1 µM
[21] = second compound 0.01 µM, first compound 3.16 µM
[22] = second compound 0.01 µM, first compound 10 µM
[23] = second compound 0.0316 µM, first compound 3.16 µM
[24] = second compound 0.0316 µM, first compound 10 µM
[25] = second compound 0.1 µM, first compound 3.16 µM
[26] = second compound 0.1 µM, first compound 10 µM
[27] = second compound 0.316 µM, first compound 3.16 µM
[28] = second compound 0.316 µM, first compound 10 µM
[29] = second compound 1 µM, first compound 3.16 µM
[30] = second compound 1 µM, first compound 10 µM
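Note: spheroids exposed to the drugs for one week before the viability readout.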
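Throughout, for viability, T/C: 100% = DMSO vehicle control wells.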

`CC(=O)c1c(C)c2cnc(Nc3ccc(N4CCNCC4)cn3)nc2n(C2CCCC2)c1=O` + CCN1CCN(Cc2ccc(Nc3ncc(F)c(-c4cc(F)c5nc(C)n(C(C)C)c5c4)n3)nc2)CC1 gave an IC50 (second compound 0.01 µM) of over 300 nM, an IC50 (second compound 0.0316 µM) of over 300 nM and an IC50 (second compound 0.1 µM) of over 300 nM. For the same compound, the IC50 (second compound 0.316 µM) was over 300 nM, the IC50 (second compound 1 µM) was over 300 nM and the viability, T/C (second compound 0.01 µM, first compound 0.000949 µM) was 101%. The viability, T/C (second compound 0.01 µM, first compound 0.003 µM) was 83.8%, the viability, T/C (second compound 0.01 µM, first compound 0.00949 µM) was 75.6% and the viability, T/C (second compound 0.01 µM, first compound 0.03 µM) was 71.8%. The viability, T/C (second compound 0.01 µM, first compound 0.0949 µM) was 58.4%, the viability, T/C (second compound 0.01 µM, first compound 0.3 µM) was 60% and the viability, T/C (second compound 0.0316 µM, first compound 0.000949 µM) was 80.1%. It also gave a viability, T/C (second compound 0.0316 µM, first compound 0.003 µM) of 83.4%, a viability, T/C (second compound 0.0316 µM, first compound 0.00949 µM) of 71.1% and a viability, T/C (second compound 0.0316 µM, first compound 0.03 µM) of 58.4%. The viability, T/C (second compound 0.0316 µM, first compound 0.0949 µM) was 56.7%, the viability, T/C (second compound 0.0316 µM, first compound 0.3 µM) was 54.1% and the viability, T/C (second compound 0.1 µM, first compound 0.000949 µM) was 57.1%. The viability, T/C (second compound 0.1 µM, first compound 0.003 µM) was 62.2%, the viability, T/C (second compound 0.1 µM, first compound 0.00949 µM) was 61.4% and the viability, T/C (second compound 0.1 µM, first compound 0.03 µM) was 52.4%. The viability, T/C (second compound 0.1 µM, first compound 0.0949 µM) was 54.3%, the viability, T/C (second compound 0.1 µM, first compound 0.3 µM) was 56% and the viability, T/C (second compound 0.316 µM, first compound 0.000949 µM) was 54%. The viability, T/C (second compound 0.316 µM, first compound 0.003 µM) was 53.3%, the viability, T/C (second compound 0.316 µM, first compound 0.00949 µM) was 55.3% and the viability, T/C (second compound 0.316 µM, first compound 0.03 µM) was 61.4%. It also gave a viability, T/C (second compound 0.316 µM, first compound 0.0949 µM) of 55.2%, a viability, T/C (second compound 0.316 µM, first compound 0.3 µM) of 60.4% and a viability, T/C (second compound 1 µM, first compound 0.000949 µM) of 67.8%. The viability, T/C (second compound 1 µM, first compound 0.003 µM) was 61%, the viability, T/C (second compound 1 µM, first compound 0.00949 µM) was 68.3% and the viability, T/C (second compound 1 µM, first compound 0.03 µM) was 64.8%. It also gave a viability, T/C (second compound 1 µM, first compound 0.0949 µM) of 65.6% and a viability, T/C (second compound 1 µM, first compound 0.3 µM) of 57.2%.

`COc1c(OCCCN2CCOCC2)ccc2c3n(c(=NC(=O)c4cnc(N)nc4)nc12)CCN3` + CCN1CCN(Cc2ccc(Nc3ncc(F)c(-c4cc(F)c5nc(C)n(C(C)C)c5c4)n3)nc2)CC1 showed an IC50 (second compound 0.01 µM) of 14.4 nM, an IC50 (second compound 0.0316 µM) of 11.2 nM and an IC50 (second compound 0.1 µM) of 7.16 nM. For the same compound, the IC50 (second compound 0.316 µM) was 4.44 nM, the IC50 (second compound 1 µM) was 6.11 nM and the viability, T/C (second compound 0.01 µM, first compound 0.00316 µM) was 89.4%. It also gave a viability, T/C (second compound 0.01 µM, first compound 0.01 µM) of 61.8%, a viability, T/C [1] of 24.7% and a viability, T/C [2] of 7.08%. The viability, T/C [3] was 3.46%, the viability, T/C [4] was 5.82% and the viability, T/C (second compound 0.0316 µM, first compound 0.00316 µM) was 74.2%. The viability, T/C (second compound 0.0316 µM, first compound 0.01 µM) was 52.7%, the viability, T/C [5] was 23.4% and the viability, T/C [6] was 5.88%. The viability, T/C [7] was 3%, the viability, T/C [8] was 2.63% and the viability, T/C (second compound 0.1 µM, first compound 0.00316 µM) was 60.1%. It also gave a viability, T/C (second compound 0.1 µM, first compound 0.01 µM) of 45.6%, a viability, T/C [9] of 22.1% and a viability, T/C [10] of 6.68%. It also gave a viability, T/C [11] of 3.33%, a viability, T/C [12] of 3.51% and a viability, T/C (second compound 0.316 µM, first compound 0.00316 µM) of 53.8%. The viability, T/C (second compound 0.316 µM, first compound 0.01 µM) was 40.8%, the viability, T/C [13] was 21.5% and the viability, T/C [14] was 9.72%. It also gave a viability, T/C [15] of 6.61%, a viability, T/C [16] of 6.55% and a viability, T/C (second compound 1 µM, first compound 0.00316 µM) of 53.2%. The viability, T/C (second compound 1 µM, first compound 0.01 µM) was 47.7%, the viability, T/C [17] was 23.4% and the viability, T/C [18] was 16.2%. The viability, T/C [19] was 12% and the viability, T/C [20] was 14.8%.

For `Cc1nc(NC(=O)N2CCCC2C(N)=O)sc1-c1ccnc(C(C)(C)C(F)(F)F)c1` (stereo not given) + CCN1CCN(Cc2ccc(Nc3ncc(F)c(-c4cc(F)c5nc(C)n(C(C)C)c5c4)n3)nc2)CC1, the IC50 (second compound 0.01 µM) was 536 nM, the IC50 (second compound 0.0316 µM) was 264 nM and the IC50 (second compound 0.1 µM) was 138 nM. The IC50 (second compound 0.316 µM) was 128 nM, the IC50 (second compound 1 µM) was 35.9 nM and the viability, T/C [1] was 80.1%. It also gave a viability, T/C [2] of 87.8%, a viability, T/C [3] of 65.7% and a viability, T/C [4] of 29.2%. For the same compound, the viability, T/C [21] was 16.2%, the viability, T/C [22] was 3.69% and the viability, T/C [5] was 75.8%. For the same compound, the viability, T/C [6] was 69%, the viability, T/C [7] was 46% and the viability, T/C [8] was 21.4%. For the same compound, the viability, T/C [23] was 10.5%, the viability, T/C [24] was 3.09% and the viability, T/C [9] was 57.4%. For the same compound, the viability, T/C [10] was 53.5%, the viability, T/C [11] was 42.3% and the viability, T/C [12] was 21.4%. For the same compound, the viability, T/C [25] was 11.4%, the viability, T/C [26] was 2.17% and the viability, T/C [13] was 55.4%. It also gave a viability, T/C [14] of 49.4%, a viability, T/C [15] of 44.9% and a viability, T/C [16] of 19.4%. For the same compound, the viability, T/C [27] was 11.5%, the viability, T/C [28] was 2.65% and the viability, T/C [17] was 49.7%. It also gave a viability, T/C [18] of 48%, a viability, T/C [19] of 37.6% and a viability, T/C [20] of 25.1%. It also gave a viability, T/C [29] of 14% and a viability, T/C [30] of 6.29%.

In the case of `Cn1nccc1Nc1nccc(-c2ccn(C(CO)c3ccc(Cl)c(F)c3)c(=O)c2)n1` (stereo not given) + CCN1CCN(Cc2ccc(Nc3ncc(F)c(-c4cc(F)c5nc(C)n(C(C)C)c5c4)n3)nc2)CC1, the IC50 (second compound 0.01 µM) is reported as 1140 nM, the IC50 (second compound 0.0316 µM) is reported as 852 nM and the IC50 (second compound 0.1 µM) is reported as 444 nM. For the same compound, the IC50 (second compound 0.316 µM) was 617 nM, the IC50 (second compound 1 µM) was 5370 nM and the viability, T/C [1] was 87.8%. The viability, T/C [2] was 83.6%, the viability, T/C [3] was 67.6% and the viability, T/C [4] was 55.9%. For the same compound, the viability, T/C [21] was 31.9%, the viability, T/C [22] was 30.3% and the viability, T/C [5] was 78%. The viability, T/C [6] was 68.1%, the viability, T/C [7] was 61.2% and the viability, T/C [8] was 52.7%. For the same compound, the viability, T/C [23] was 31%, the viability, T/C [24] was 34.2% and the viability, T/C [9] was 70.7%. It also gave a viability, T/C [10] of 59.5%, a viability, T/C [11] of 53.7% and a viability, T/C [12] of 47.2%. The viability, T/C [25] was 27.1%, the viability, T/C [26] was 32.3% and the viability, T/C [13] was 68.7%. It also gave a viability, T/C [14] of 59.5%, a viability, T/C [15] of 53.3% and a viability, T/C [16] of 50.5%. It also gave a viability, T/C [27] of 36.8%, a viability, T/C [28] of 31.9% and a viability, T/C [17] of 74.9%. The viability, T/C [18] was 82.7%, the viability, T/C [19] was 63.6% and the viability, T/C [20] was 62.7%. The viability, T/C [29] was 57.8% and the viability, T/C [30] was 43.2%.
